Patent US20250197372A1 (priority 2020, published 2025)
pIC50: −log10 of the molar value. Where two headings read alike, the source gives them in different places.

Columns and labels:
Assay type in all cases: biochemical
[1] = target: rat maltase (partially purified alpha-glucosidase from intestinal rat powder); assay: Intestinal alpha-glucosidase assay, maltose substrate (Glucose GO Kit)
Protocol: Intestinal alpha-glucosidases (rat maltase and sucrase): Intestinal alpha-glucosidases act upon 1,4-alpha-glucoside bonds, breaking down disaccharides to glucose. To perform this assay, partially purified alpha-glucosidase from intestinal rat powder was incubated for 60 minutes at 37° C. with multiple dilutions of test compounds. Maltose or Sucrose respectively was then introduced as substrate to the mixture and incubated for 30 minutes at 37° C. The reaction was stopped by a 5-minute incubation at 90° C. and the resultant glucose production is detected using Sigma's Glucose GO Kit. Percent inhibition was then plotted as a function of concentration for each test compound. The IC50 was determined using a 4-PL curve fit and serves as the measure of relative inhibition of each test compound (see Table 3).

[2] = target: T1, recombinant alpha-glucosidase II (murine full-length glucosidase II, alpha and beta subunits, Glu 2) (Mus musculus, UniProt Q8BHN3); assay: Alpha-glucosidase II assay (4-methylumbelliferyl-alpha-D-pyranoside substrate, fluorescence)
T1 construct: made in house; host or cells: HEK-293T cells transduced with BacMam viruses (75% alpha, 25% beta); protein harvested from culture supernatant
T1 sequence (O08795 15-521): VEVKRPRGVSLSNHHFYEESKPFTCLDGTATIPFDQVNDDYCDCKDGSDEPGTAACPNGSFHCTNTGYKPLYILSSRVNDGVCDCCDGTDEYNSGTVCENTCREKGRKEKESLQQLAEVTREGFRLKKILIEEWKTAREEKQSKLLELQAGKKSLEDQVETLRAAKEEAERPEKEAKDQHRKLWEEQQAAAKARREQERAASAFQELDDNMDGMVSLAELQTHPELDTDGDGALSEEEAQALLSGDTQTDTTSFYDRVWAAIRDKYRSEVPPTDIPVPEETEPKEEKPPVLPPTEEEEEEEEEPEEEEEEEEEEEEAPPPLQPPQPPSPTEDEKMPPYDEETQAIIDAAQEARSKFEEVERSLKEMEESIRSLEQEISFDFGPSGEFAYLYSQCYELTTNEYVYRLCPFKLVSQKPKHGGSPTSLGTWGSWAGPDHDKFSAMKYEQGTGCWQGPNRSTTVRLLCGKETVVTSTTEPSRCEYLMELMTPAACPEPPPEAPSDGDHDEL
T1 sequence (Q8BHN3 33-944): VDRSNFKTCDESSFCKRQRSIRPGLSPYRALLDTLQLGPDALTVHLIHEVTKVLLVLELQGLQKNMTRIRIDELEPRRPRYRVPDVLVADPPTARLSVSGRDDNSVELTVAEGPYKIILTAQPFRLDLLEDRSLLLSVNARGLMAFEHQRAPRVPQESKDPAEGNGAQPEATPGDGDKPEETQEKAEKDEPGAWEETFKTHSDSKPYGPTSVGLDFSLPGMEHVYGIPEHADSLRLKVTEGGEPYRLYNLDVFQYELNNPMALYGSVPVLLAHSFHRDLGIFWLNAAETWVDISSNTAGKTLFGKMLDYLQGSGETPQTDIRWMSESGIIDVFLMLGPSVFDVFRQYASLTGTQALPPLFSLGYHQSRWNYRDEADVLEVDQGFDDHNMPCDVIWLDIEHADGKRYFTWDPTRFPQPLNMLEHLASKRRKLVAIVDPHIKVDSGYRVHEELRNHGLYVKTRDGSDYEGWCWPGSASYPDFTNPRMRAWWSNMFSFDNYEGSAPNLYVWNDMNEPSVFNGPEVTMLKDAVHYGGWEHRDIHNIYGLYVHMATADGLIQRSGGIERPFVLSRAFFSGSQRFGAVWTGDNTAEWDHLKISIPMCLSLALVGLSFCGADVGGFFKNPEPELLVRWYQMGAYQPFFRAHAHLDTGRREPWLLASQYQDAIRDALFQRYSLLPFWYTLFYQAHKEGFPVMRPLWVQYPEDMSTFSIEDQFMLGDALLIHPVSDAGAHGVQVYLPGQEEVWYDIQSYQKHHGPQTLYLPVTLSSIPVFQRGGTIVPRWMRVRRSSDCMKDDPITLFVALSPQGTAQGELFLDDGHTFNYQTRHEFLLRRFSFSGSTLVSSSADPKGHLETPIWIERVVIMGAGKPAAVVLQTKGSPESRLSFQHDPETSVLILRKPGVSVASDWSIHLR

[3] = target: recombinant human GAA (acid alpha-glucosidase) (Homo sapiens, UniProt P10253); assay: Acid alpha-glucosidase (GAA) assay (4-methylumbelliferyl-alpha-D-pyranoside substrate, fluorescence)
Protocol: Acid alpha-glucosidase (GAA): To analyze inhibitory effects of a test compound, commercially available recombinant human GAA was incubated with multiple dilutions of test compound for 60 minutes at 37° C. 4-methylumbelliferyl-alpha-D-pyranoside was then introduced to the mixture as the substrate. 1,4-methyllumbelliferone is generated, and after an incubation for 20 minutes at 37° C., the reaction was stopped with the stop solution (0.5M glycine 0.3M NaOH pH 10). 1,4-methyllumbelliferone is detected by fluorescence (excitation at 365 nm, emission at 440 nm). Relative fluorescence compared to untreated enzymatic activity and test compound concentration is plotted as a function of percent inhibition. The IC50 is determined using a 4-PL curve fit as the measure of relative inhibitory activity of each test compound (see Table 3).

[4] = Glucosidase 2, read-out: Glu2 IC50

Row | Structure (SMILES) | pIC50 [1] | pIC50 [2, 4] | pIC50 [3] | pIC50 [2]
1 | CN(C)C(=O)c1cc(NCCCCCCN2C[C@H](O)[C@@H](O)[C@H](O)[C@H]2CO)cc(-c2ncccn2)c1 [Compound 1126, N,N-dimethyl-3-(pyrimidin-2-yl)-5-({6-[(2R,3R,4R,5S)-3,4,5-trihydroxy-2-(hydroxymethyl)piperidin-1-yl]hexyl}amino)benzamide] | 7.64 | 7.46 | 7.07 | 
2 | CS(=O)(=O)c1cc(NCCCCCCN2C[C@H](O)[C@@H](O)[C@H](O)[C@H]2CO)cc(-c2ncccn2)c1 [Compound 1128, (2R,3R,4R,5S)-2-(hydroxymethyl)-1-(6-{[3-methanesulfonyl-5-(pyrimidin-2-yl)phenyl]amino}hexyl)piperidine-3,4,5-triol] | > 9.00 | 9.00 | 8.30 | 
3 | O=Cc1cc(NCCCCCCN2C[C@H](O)[C@@H](O)[C@H](O)[C@H]2CO)cc(-c2ncccn2)c1 [Compound 1129, 3-(pyrimidin-2-yl)-5-({6-[(2R,3R,4R,5S)-3,4,5-trihydroxy-2-(hydroxymethyl)piperidin-1-yl]hexyl}amino)benzaldehyde] | 8.30 | 8.15 | 7.55 | 
4 | N#Cc1cc(NCCCCCCN2C[C@H](O)[C@@H](O)[C@H](O)[C@H]2CO)cc(-c2ncccn2)c1 [Compound 1130, 3-(pyrimidin-2-yl)-5-({6-[(2R,3R,4R,5S)-3,4,5-trihydroxy-2-(hydroxymethyl)piperidin-1-yl]hexyl}amino)benzonitrile] | 8.40 | 8.22 | 7.92 | 
5 | OC[C@@H]1[C@@H](O)[C@H](O)[C@@H](O)CN1CCCCCCNc1cc(-c2ncccn2)cc(C(F)(F)F)c1 [Compound 1131, (2R,3R,4R,5S)-2-(hydroxymethyl)-1-(6-{[3-(pyrimidin-2-yl)-5-(trifluoromethyl)phenyl]amino}hexyl)piperidine-3,4,5-triol] | 8.10 | 8.52 | 7.60 | 
6 | COc1cc(C#N)cc(NCCc2ccc(CCN3C[C@H](O)[C@@H](O)[C@H](O)[C@H]3CO)cc2)c1 [Compound 1133, 3-methoxy-5-{[2-(4-{2-[(2R,3R,4R,5S)-3,4,5-trihydroxy-2-(hydroxymethyl)piperidin-1-yl]ethyl}phenyl)ethyl]amino}benzonitrile] | 7.01 | 8.30 | 6.27 | 
7 | N#Cc1cc(Cl)cc(NCCc2ccc(CCN3C[C@H](O)[C@@H](O)[C@H](O)[C@H]3CO)cc2)c1 [Compound 1134, 3-chloro-5-{[2-(4-{2-[(2R,3R,4R,5S)-3,4,5-trihydroxy-2-(hydroxymethyl)piperidin-1-yl]ethyl}phenyl)ethyl]amino}benzonitrile] | 6.89 | 9.00 | 6.78 | 
8 | O=[N+]([O-])c1cc(C2CC2)ccc1NCCCCCCN1C[C@H](O)[C@@H](O)[C@H](O)[C@H]1CO [Compound 1136, (2R,3R,4R,5S)-1-{6-[(4-cyclopropyl-2-nitrophenyl)amino]hexyl}-2-(hydroxymethyl)piperidine-3,4,5-triol] | > 9.00 | 9.00 | 8.05 | 
9 | O=[N+]([O-])c1cc(-c2ccccc2)ccc1NCCCCCCN1C[C@H](O)[C@@H](O)[C@H](O)[C@H]1CO [Compound 1138, (2R,3R,4R,5S)-2-(hydroxymethyl)-1-[6-({3-nitro-[1,1′-biphenyl]-4-yl}amino)hexyl]piperidine-3,4,5-triol] | > 9.00 |  | > 9.00 | 8.70
10 | [N-]=[N+]=Nc1ccc(NCCc2cc(Br)cc(CCN3C[C@H](O)[C@@H](O)[C@H](O)[C@H]3CO)c2)c([N+](=O)[O-])c1 [Compound 1140, (2R,3R,4R,5S)-1-[2-(3-{2-[(4-azido-2-nitrophenyl)amino]ethyl}-5-bromophenyl)ethyl]-2-(hydroxymethyl)piperidine-3,4,5-triol] | 5.51 | 7.35 | 5.68 | 
11 | COc1cc(CC2CCOC2)cc(NCCCCCCN2C[C@H](O)[C@@H](O)[C@H](O)[C@H]2CO)c1 (stereo partly drawn) [Compound 1141, (2R,3R,4R,5S)-2-(hydroxymethyl)-1-[6-({3-methoxy-5-[(oxolan-3-yl)methyl]phenyl}amino)hexyl]piperidine-3,4,5-triol] | 7.37 | 6.86 | 6.73 | 
12 | [N-]=[N+]=Nc1ccc(NCCNc2cc(Cl)cc(CCN3C[C@H](O)[C@@H](O)[C@H](O)[C@H]3CO)c2)c([N+](=O)[O-])c1 [Compound 1143, (2R,3R,4R,5S)-1-{2-[3-({2-[(4-azido-2-nitrophenyl)amino]ethyl}amino)-5-chlorophenyl]ethyl}-2-(hydroxymethyl)piperidine-3,4,5-triol] | 5.69 | 8.70 | 6.10 | 
13 | COc1cc(Cc2ccccc2)cc(NCCCCCCN2C[C@H](O)[C@@H](O)[C@H](O)[C@H]2CO)c1 [Compound 1145, (2R,3R,4R,5S)-1-{6-[(3-benzyl-5-methoxyphenyl)amino]hexyl}-2-(hydroxymethyl)piperidine-3,4,5-triol] | > 9.00 | > 9.00 | 7.22 | 
14 | COc1cc(NCCCCCCN2C[C@H](O)[C@@H](O)[C@H](O)[C@H]2CO)cc(C2CCCO2)c1 (stereo partly drawn) [Compound 1146, (2R,3R,4R,5S)-2-(hydroxymethyl)-1-(6-{[3-methoxy-5-(oxolan-2-yl)phenyl]amino}hexyl)piperidine-3,4,5-triol] | 7.64 | 7.82 | 7.17 | 
15 | COc1cc(NCCCCCCN2C[C@H](O)[C@@H](O)[C@H](O)[C@H]2CO)cc(C2=CCCO2)c1 [Compound 1147, (2R,3R,4R,5S)-1-(6-{[3-(4,5-dihydrofuran-2-yl)-5-methoxyphenyl]amino}hexyl)-2-(hydroxymethyl)piperidine-3,4,5-triol] | 8.10 | 7.47 | 7.42 | 
16 | COc1cc(NCCCCCCN2C[C@H](O)[C@@H](O)[C@H](O)[C@H]2CO)cc(C2CCCCC2)c1 [Compound 1148, (2R,3R,4R,5S)-1-{6-[(3-cyclohexyl-5-methoxyphenyl)amino]hexyl}-2-(hydroxymethyl)piperidine-3,4,5-triol] | > 9.00 | > 9.00 | 7.06 | 
17 | COc1cc(NCCCCCCN2C[C@H](O)[C@@H](O)[C@H](O)[C@H]2CO)cc(C2=CCCCC2)c1 [Compound 1149, (2R,3R,4R,5S)-1-(6-{[3-(cyclohex-1-en-1-yl)-5-methoxy-phenyl]amino}hexyl)-2-(hydroxymethyl)piperidine-3,4,5-triol] | > 9.00 | > 9.00 | 7.18 | 
18 | COc1cc(NCCCCCCN2C[C@H](O)[C@@H](O)[C@H](O)[C@H]2CO)cc(-c2ccccc2)c1 [Compound 1150, (2R,3R,4R,5S)-2-(hydroxymethyl)-1-[6-({5-methoxy-[1,1′-biphenyl]-3-yl}amino)hexyl]piperidine-3,4,5-triol] | > 9.00 | > 9.00 | 7.35 | 
19 | CC(C)(C)c1cc(NCCCCCCN2C[C@H](O)[C@@H](O)[C@H](O)[C@H]2CO)cc(-c2ncccn2)c1 [Compound 1151, (2R,3R,4R,5S)-1-(6-{[3-tert-butyl-5-(pyrimidin-2-yl)phenyl]amino}hexyl)-2-(hydroxymethyl)piperidine-3,4,5-triol] | > 9.00 | > 9.00 | 7.62 | 
20 | COc1cc(NCCc2ccc(CCN3C[C@H](O)[C@@H](O)[C@H](O)[C@H]3CO)cc2)cc(-c2ccco2)c1 [Compound 1153, (2R,3R,4R,5S)-1-{2-[4-(2-{[3-(furan-2-yl)-5-methoxy-phenyl]amino}ethyl)phenyl]ethyl}-2-(hydroxymethyl)piperidine-3,4,5-triol] | 6.49 | 6.26 | 7.24 | 
21 | COc1cc(NCCc2ccc(CCN3C[C@H](O)[C@@H](O)[C@H](O)[C@H]3CO)cc2)cc(C2=CCOCC2)c1 [Compound 1154, (2R,3R,4R,5S)-1-{2-[4-(2-{[3-(3,6-dihydro-2H-pyran-4-yl)-5-methoxyphenyl]amino}ethyl)phenyl]ethyl}-2-(hydroxymethyl)piperidine-3,4,5-triol] | 6.20 | 8.70 | 6.53 | 
22 | COc1cc(NCCc2ccc(CCN3C[C@H](O)[C@@H](O)[C@H](O)[C@H]3CO)cc2)cc(C2=COCCO2)c1 [Compound 1155, (2R,3R,4R,5S)-1-{2-[4-(2-{[3-(5,6-dihydro-1,4-dioxin-2-yl)-5-methoxyphenyl]amino}ethyl)phenyl]ethyl}-2-(hydroxymethyl)piperidine-3,4,5-triol] | 6.38 | > 9.00 | 6.34 | 
23 | COc1cc(NCCc2ccc(CCN3C[C@H](O)[C@@H](O)[C@H](O)[C@H]3CO)cc2)cc(-c2ncccn2)c1 [Compound 1156, (2R,3R,4R,5S)-2-(hydroxymethyl)-1-{2-[4-(2-{[3-methoxy-5-(pyrimidin-2-yl)phenyl]amino}ethyl)phenyl]ethyl}piperidine-3,4,5-triol] | 6.54 | 6.93 | 6.09 | 
